{"source": "paper PMC11061149", "about": "“Protein mimetic 2D FAST rescues alpha synuclein aggregation mediated early and post disease Parkinson’s phenotypes” (Nature Communications, 2024)", "key": {"[1]": {"system": "HEK cells expressing αSA53T-YFP", "experiment": "MTT reduction assay of HEK cells treated with αS aggregated with or without ligand", "assay_type": "cell-based, human", "description": "The aggregation of endogenous monomeric αS-A53T-YFP into fibers can be detected by the intracellular fluorescent puncta (Fig. 3a, + αS). A solution of 100 μM αS was aggregated in the absence and presence of NS132 at an equimolar ratio for four days. The resulting solutions of αS fibers (5 μM in monomeric αS, ±NS132) were introduced to HEK cells in the presence of Lipofectamine 3000 for 24 h. In contrast to the control (no fibers), we observed a significant number of fluorescent inclusions in the presence of αS fibers (Fig. 3a, white arrows, +αS), which was a consequence of the templating of endogenous monomeric αS-A53T-YFP by the exogenously added αS fibers. […] Moreover, we observed the colocalization of an adaptor protein, p62, in the aggresome of αS inclusions in HEK cells (Fig. 3b, +αS, red),[51]–[54]. […] We also quantified the inclusions (αS-A53T-YFP) using a ProteoStat dye-based high throughput 96-well plate reader-based assay recently developed in our lab[24]. […] The viability of HEK cells was measured using the (3-(4,5-dimethylthiazol-2-yl)-2,5-diphenyltetrazolium bromide) (MTT) reduction based assay.\nThis assay was performed based on a previous protocol with slight modifications. […] The crystals were dissolved with gentle shaking of the plate, and subsequently, the absorbance was measured at 570 nm using an Infinite M200 Pro Plate Reader (Tecan, Grŏdig, Austria). […]"}, "[2]": {"system": "UA196 worms", "experiment": "Chemotaxis assay of UA196 worms", "assay_type": "in vivo, C. elegans", "details": "50 µM ligand, day 10, E. coli attractant vs ethanol repellent", "description": "For chemotaxis assay, the Chemotaxis (CTX) media plates (2% Agar, 5 mM KH2PO4, 1 mM CaCl2, 1 mM MgSO4, 75 µM FUDR), referred to as PLATE 7, and CTX buffer (5 mM KH2PO4, 1 mM CaCl2, and 1 mM MgSO4) were prepared using previous protocols[24],[78],[85],[86]. The PLATE 7 (without ligand) were treated with ligand (50 µM, stock conc. = 10 mM in DMSO) that was dissolved in CTX buffer (total volume = 300 µL) and was spotted atop the CTX media plates at 20 °C, referred to as PLATE 8. For CTX assay, we prepared another plate referred to as PLATE 9, which was PLATE 7 divided into four equal quadrants and designated as A and C (diagonally opposite), B and D (diagonally opposite). […] The experiment on the WMicroTracker ARENA plate reader (Phylumtech, Santa Fe, Argentina) started within 1 h of the transfer of the worms at 20 °C. […] On day 3, a total of 50 worms were transferred to the center of the PLATE 9 using CTX buffer ( ~20 µL) and the number of worms were counted under an Olympus microscope (SZ-6145, Waltham, MA). […] The worm activity was monitored using the WMicroTracker ARENA plate reader (Phylumtech, Santa Fe, Argentina) at 20 °C for 2 h. […] For day 10, 50 worms (N2 or UA196) from PLATE 7 (without ligand) or PLATE 8 (with 50 µM ligand) were transferred to PLATE 9 using CTX buffer ( ~ 20 µL) and the number of worms were counted under an Olympus microscope (SZ-6145, Waltham, MA). […]"}}, "note": "Several values for one entry are separate records, joined by “and”; a condition that tells them apart may be missing. Equal values may be shown once."}
{"smiles": "Cc1ccc(NC(=O)c2ccc(NC(=O)c3ccc([N+](=O)[O-])c(NCCc4c[nH]c5ccccc45)n3)c(NCC3CCCCC3)n2)c(OCC(=O)O)n1", "note": "[NS132]", "values": [{"measurement": "relative viability of HEK cells, individual trials", "setting": "[1]; HEK cells + Synuclein fibers aggregated with equimolar NS132, control = 1", "value": "0.8792 and 0.8235 and 0.899 and 0.8879 and 0.9679 and 0.8608 and 0.7821 and 0.8196 and 0.8279 and 0.7732 and 0.9011 and 0.8063 and 0.8583 and 0.8947 and 0.7357 and 0.8112"}, {"measurement": "viability of HEK cells", "setting": "[1]; αS aggregated solution with an equimolar ratio of NS132 (52% with αS alone)", "value": 85, "unit": "%"}, {"measurement": "behavioral deficits / chemotaxis index of UA196 worms, in words", "setting": "[2]", "value": "able to rescue behavioral deficits"}]}
